Measured values as given in US9630952B2, “Crystalline forms of afatinib di-maleate” (IVAX INTERNATIONAL GMBH, priority 2014, dated 2017).

Key:
Format in all cases: physicochemical
[1] = competitive slurry experiment comparing thermodynamic stabilities of forms A and Alpha
Description: As discussed above, crystalline form Alpha of Afatinib di-maleate has some advantages. […] Pharmaceutical molecules may display solid to solid phase transformations, transformations between polymorphs or between unsolvated and solvated form, which may be detected by competitive slurry experiments.

[2] = polymorphic stability under mechanical stress; settings: exposed to mechanical stress (e.g. grinding, tabletting pressure); compared to Form A
Description: As discussed above, crystalline form M of Afatinib di-maleate has advantages. […] As formulation processes often involve mechanical stress exerting technologies e.g. during grinding or under strong pressure in a tabletting machine, the polymorphic stability of API material is a desirable property.

[3] = wettability; settings: compared to form A
Description: As discussed above, crystalline form N of Afatinib di-maleate has some advantages. […] Wetting is the ability of a liquid (e.g. water) to maintain contact with a solid surface (e.g., API). It is a precursor to dissolution and so the wettability of a drug particle has a significant influence on the dissolution rates and the release characteristics in an oral pharmaceutical delivery. Wettability may also influence the interactions with other particles during formulation and manufacture. A polymorph with enhanced wettability ensures proper solubility measurement of the API per se and in formulation during dissolution experiments, i.e., better distribution of water and properly wetted sample.

In the case of `CN(C)C/C=C/C(=O)Nc1cc2c(Nc3ccc(F)c(Cl)c3)ncnc2cc1O[C@H]1CCOC1` [Form Alpha, Afatinib di-maleate], the thermodynamic stability ([1]; concluded from competitive slurry in ethanol at room temperature, compared to form A) is reported as “enhanced thermodynamic stability of form Alpha over form A” and the “solid form resulting from competitive slurry of forms A and Alpha” value ([1]; in ethanol at room temperature, after about 67 hours) is reported as “pure form Alpha”.

In the case of `CN(C)C/C=C/C(=O)Nc1cc2c(Nc3ccc(F)c(Cl)c3)ncnc2cc1O[C@H]1CCOC1` [Form M, Afatinib di-maleate], the polymorphic stability [2] is reported as “enhanced polymorphic stability compared to Form A”.

For `CN(C)C/C=C/C(=O)Nc1cc2c(Nc3ccc(F)c(Cl)c3)ncnc2cc1O[C@H]1CCOC1` [Form N, Afatinib di-maleate], the wettability [3] was “better wettability over form A”.
